Molecular target: T1, human CCR6 (Homo sapiens, UniProt P51684)
T1 sequence (P51684 1-374): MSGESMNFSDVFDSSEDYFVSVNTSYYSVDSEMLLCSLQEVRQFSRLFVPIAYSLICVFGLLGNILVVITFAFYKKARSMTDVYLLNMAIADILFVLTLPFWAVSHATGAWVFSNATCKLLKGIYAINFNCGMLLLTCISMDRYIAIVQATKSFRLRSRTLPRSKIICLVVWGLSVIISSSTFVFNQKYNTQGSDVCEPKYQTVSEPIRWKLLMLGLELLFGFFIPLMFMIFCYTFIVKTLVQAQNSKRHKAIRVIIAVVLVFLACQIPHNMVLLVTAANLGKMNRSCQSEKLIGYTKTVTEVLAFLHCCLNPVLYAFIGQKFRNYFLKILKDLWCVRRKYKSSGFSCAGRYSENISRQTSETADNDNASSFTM
Assay: Human CCR6-CRE reporter assay
Assay type: cell-based
Parameters: The second construct contained the open reading frame of human CCR6 in the pUNO1 backbone; host or cells: 293FT cells
Conditions: relative -Log IC50; 293FT cells transfected with human CCR6 and CRE-luciferase reporter; 6 μM Forskolin, 6 nM CCL20; 5 h
Protocol: Human CCR6-CRE Reporter Assay
293FT cells were transfected with 2 constructs using TransIT-293 (Mirus). The first construct (pGL4.29, Promega) expressed the luciferase reporter gene luc2P in response to the binding of cAMP-induced CREB to the CREelement in its promoter. The second construct contained the open reading frame of human CCR6 in the pUNO1 backbone under the control of an enhanced CMV promoter (InVivoGen). 48 h after transfection, cells were harvested and diluted to 750,000 cells/ml in culture medium (DMEM, 10% FBS, 1× pen/strep (Gibco 15140)). Compounds were 2.5-fold serially diluted in DMSO. Further dilutions were made in assay medium (DMEM, 10% FBS, 1× pen/strep, 6 μM Forskolin, 6 nM CCL20). 4 μl of the compound solution was added to a white MW384 plate, followed by 20 μl of the cell suspension. Final DMSO concentration in the assay was 0.1%. The MW384 plate was placed in an incubator at 37° C., 5% CO2 for 5 h. Luciferase activity was determined by addition of 24 μl of a 2.5× diluted BriteLite luciferase solution (Perkin Elmer), followed by luminescence measurement using a VICTOR Plate reader (Perkin Elmer). […] The relative −Log IC50 was determined with GraphPad Prism 9 using a four-parameter dose-response model.

| SMILES | IC50 |
| --- | --- |
| CN(C)C(=O)c1ccc(-c2ccc(S(=N)(=O)[C@H]3CC[C@H](Nc4ccc(S(F)(F)(F)(F)F)cc4)CC3)cc2)cn1 (stereo partly drawn) [Example 100, N,N-dimethyl-5-(4-{[trans-4-{[4-(pentafluoro-λ^6-sulfanyl)phenyl]Amino}cyclohexyl]sulfonimidoyl}phenyl)pyridine-2-carboxamide] | 794 nM |
| Cc1cn2cc(-c3ccc(S(=N)(=O)[C@H]4CC[C@H](Nc5ccc(S(F)(F)(F)(F)F)cc5)CC4)cc3)ncc2n1 (stereo partly drawn) [Example 103, (4-{2-methylimidazo[1,2-a]pyrazin-6-yl}phenyl)[trans-4-{[4-(pentafluoro-λ^6-sulfanyl)phenyl]Amino}cyclohexyl](imino)-λ^6-sulfanone] | 1260 nM |
| CN(C)C(=O)c1ccc(-c2ccc(S(=N)(=O)[C@H]3CC[C@H](Nc4ccc(S(F)(F)(F)(F)F)cc4)CC3)cc2)nc1 (stereo partly drawn) [Example 106, N,N-dimethyl-6-(4-{[trans-4-{[4-(pentafluoro-λ^6-sulfanyl)phenyl]Amino}cyclohexyl]sulfonimidoyl}phenyl)pyridine-3-carboxamide] | 1580 nM |
| CNC(=O)c1ccc(-c2ccc(S(=N)(=O)[C@H]3CC[C@H](Nc4ccc(S(F)(F)(F)(F)F)cc4)CC3)cc2)nc1 (stereo partly drawn) [Example 107, N-methyl-6-(4-{[trans-4-{[4-(pentafluoro-λ^6-sulfanyl)phenyl]Amino}cyclohexyl]sulfonimidoyl}phenyl)pyridine-3-carboxamide] | 1580 nM |
| N=S(=O)(c1ccc(-c2ccc(C(N)=O)cn2)cc1)[C@H]1CC[C@H](Nc2ccc(S(F)(F)(F)(F)F)cc2)CC1 (stereo partly drawn) [Example 111, 6-(4-{[trans-4-{[4-(pentafluoro-λ^6-sulfanyl)phenyl]Amino}cyclohexyl]sulfonimidoyl}phenyl)pyridine-3-carboxamide] | 1000 nM |
| N=S(=O)(c1ccc(-c2ccc3c(c2)CCNC3=O)cc1)[C@H]1CC[C@H](Nc2ccc(S(F)(F)(F)(F)F)cc2)CC1 (stereo partly drawn) [Example 113, 6-(4-{[trans-4-{[4-(pentafluoro-λ^6-sulfanyl)phenyl]Amino}cyclohexyl]sulfonimidoyl}phenyl)-1,2,3,4-tetrahydroisoquinolin-1-one] | 316 nM |
| N=S(=O)(c1ccc(-c2ccc3c(c2)C(=O)NCC3)cc1)[C@H]1CC[C@H](Nc2ccc(S(F)(F)(F)(F)F)cc2)CC1 (stereo partly drawn) [Example 114, 7-(4-{[trans-4-{[4-(pentafluoro-λ^6-sulfanyl)phenyl]Amino}cyclohexyl]sulfonimidoyl}phenyl)-1,2,3,4-tetrahydroisoquinolin-1-one] | 398 nM |
| N#Cc1c[nH]c2ccc(-c3ccc(S(=N)(=O)N4CCC(Nc5ccc(S(F)(F)(F)(F)F)cc5)CC4)cc3)cc12 (centres unmarked) [Example 120, 5-{4-[(4-{[4-(pentafluoro-λ^6-sulfanyl)phenyl]Amino}piperidin-1-yl)sulfonimidoyl]phenyl}-1H-indole-3-carbonitrile] | 63.1 nM |
| N#Cc1ccc(-c2ccc(S(=N)(=O)N3CCC(Nc4ccc(S(F)(F)(F)(F)F)cc4)CC3)cc2)cc1 (centres unmarked) [Example 122, 4′-[(4-{[4-(pentafluoro-λ^6-sulfanyl)phenyl]Amino}piperidin-1-yl)sulfonimidoyl]-[1,1′-biphenyl]-4-carbonitrile] | 398 nM |
| CC(C)NC(=O)c1cccc(-c2ccc(S(=O)(=O)[C@H]3CC[C@H](Nc4ccc(S(F)(F)(F)(F)F)cc4)CC3)cc2)c1 [Example 141, N-(propan-2-yl)-4′-{[trans-4-{[4-(pentafluoro-λ^6-sulfanyl)phenyl]amino}cyclohexyl]sulfonyl}-[1,1′-biphenyl]-3-carboxamide] | 79.4 nM |
| CN(C)c1cnc2ccc(-c3ccc(S(=O)(=O)[C@H]4CC[C@H](Nc5ccc(S(F)(F)(F)(F)F)cc5)CC4)cc3)cn12 [Example 143, N,N-dimethyl-6-(4-{[trans-4-{[4-(pentafluoro-λ^6-sulfanyl)phenyl]amino}cyclohexyl]sulfonyl}phenyl)imidazo[1,2-a]pyridin-3-amine] | 100 nM |

The remaining lines, values ahead:

| IC50 | SMILES |
| --- | --- |
| 398 nM | N=S(=O)(c1ccc(-c2ccn3ccnc3c2)cc1)[C@H]1CC[C@H](Nc2ccc(S(F)(F)(F)(F)F)cc2)CC1 (stereo partly drawn) [Example 93, (4-{imidazo[1,2-a]pyridin-7-yl}phenyl)[trans-4-{[4-(pentafluoro-λ^6-sulfanyl)phenyl]Amino}cyclohexyl](imino)-λ^6-sulfanone] |
| 501 nM | N=S(=O)(c1ccc(-c2ccn3ncnc3c2)cc1)[C@H]1CC[C@H](Nc2ccc(S(F)(F)(F)(F)F)cc2)CC1 (stereo partly drawn) [Example 94, [trans-4-{[4-(pentafluoro-λ^6-sulfanyl)phenyl]Amino}cyclohexyl](4-{[1,2,4]triazolo[1,5-a]pyridin-7-yl}phenyl)(imino)-λ^6-sulfanone] |
| 1000 nM | CN(C)C(=O)c1cccc(-c2ccc(S(=N)(=O)[C@H]3CC[C@H](Nc4ccc(S(F)(F)(F)(F)F)cc4)CC3)cc2)c1 (stereo partly drawn) [Example 97, N,N-dimethyl-4′-{[trans-4-{[4-(pentafluoro-λ^6-sulfanyl)phenyl]Amino}cyclohexyl]sulfonimidoyl}-[1,1′-biphenyl]-3-carboxamide] |
| 398 nM | Cc1nnc2cc(-c3ccc(S(=N)(=O)[C@H]4CC[C@H](Nc5ccc(S(F)(F)(F)(F)F)cc5)CC4)cc3)ccn12 (stereo partly drawn) [Example 104, (4-{3-methyl-[1,2,4]triazolo[4,3-a]pyridin-7-yl}phenyl)[trans-4-{[4-(pentafluoro-λ^6-sulfanyl)phenyl]Amino}cyclohexyl](imino)-λ^6-sulfanone] |
| 501 nM | N=S(=O)(c1ccc(-c2ccc(C(N)=O)nc2)cc1)[C@H]1CC[C@H](Nc2ccc(S(F)(F)(F)(F)F)cc2)CC1 (stereo partly drawn) [Example 108, 5-(4-{[trans-4-{[4-(pentafluoro-λ^6-sulfanyl)phenyl]Amino}cyclohexyl]sulfonimidoyl}phenyl)pyridine-2-carboxamide] |
| 2000 nM | CN(C)C(=O)c1cc(-c2ccc(S(=N)(=O)[C@H]3CC[C@H](Nc4ccc(S(F)(F)(F)(F)F)cc4)CC3)cc2)ccn1 (stereo partly drawn) [Example 109, N,N-dimethyl-4-(4-{[trans-4-{[4-(pentafluoro-λ^6-sulfanyl)phenyl]Amino}cyclohexyl]sulfonimidoyl}phenyl)pyridine-2-carboxamide] |
| 316 nM | CNC(=O)c1cc(-c2ccc(S(=N)(=O)[C@H]3CC[C@H](Nc4ccc(S(F)(F)(F)(F)F)cc4)CC3)cc2)ccn1 (stereo partly drawn) [Example 110, N-methyl-4-(4-{[trans-4-{[4-(pentafluoro-λ^6-sulfanyl)phenyl]Amino}cyclohexyl]sulfonimidoyl}phenyl)pyridine-2-carboxamide] |
| 398 nM | N=S(=O)(c1ccc(-c2ccc3c(c2)CNC3=O)cc1)[C@H]1CC[C@H](Nc2ccc(S(F)(F)(F)(F)F)cc2)CC1 (stereo partly drawn) [Example 112, 5-(4-{[trans-4-{[4-(pentafluoro-λ^6-sulfanyl)phenyl]Amino}cyclohexyl]sulfonimidoyl}phenyl)-2,3-dihydro-1H-isoindol-1-one] |
| 398 nM | N=S(=O)(c1ccc(-c2ccc3c(c2)C(=O)NC3)cc1)[C@H]1CC[C@H](Nc2ccc(S(F)(F)(F)(F)F)cc2)CC1 (stereo partly drawn) [Example 115, 6-(4-{[trans-4-{[4-(pentafluoro-λ^6-sulfanyl)phenyl]Amino}cyclohexyl]sulfonimidoyl}phenyl)-2,3-dihydro-1H-isoindol-1-one] |
| 200 nM | N=S(=O)(c1ccc(-c2ccc3c(c2)CC(=O)N3)cc1)[C@H]1CC[C@H](Nc2ccc(S(F)(F)(F)(F)F)cc2)CC1 (stereo partly drawn) [Example 116, 5-(4-{[trans-4-{[4-(pentafluoro-λ^6-sulfanyl)phenyl]Amino}cyclohexyl]sulfonimidoyl}phenyl)-2,3-dihydro-1H-indol-2-one] |
| 251 nM | N=S(=O)(c1ccc(-c2ccc3c(c2)NC(=O)C3)cc1)[C@H]1CC[C@H](Nc2ccc(S(F)(F)(F)(F)F)cc2)CC1 (stereo partly drawn) [Example 117, 6-(4-{[trans-4-{[4-(pentafluoro-λ^6-sulfanyl)phenyl]Amino}cyclohexyl]sulfonimidoyl}phenyl)-2,3-dihydro-1H-indol-2-one] |
| 316 nM | N=S(=O)(c1ccc(-c2ccc3n[nH]c(=O)n3c2)cc1)[C@H]1CC[C@H](Nc2ccc(S(F)(F)(F)(F)F)cc2)CC1 (stereo partly drawn) [Example 119, 6-(4-{[trans-4-{[4-(pentafluoro-λ^6-sulfanyl)phenyl]Amino}cyclohexyl]sulfonimidoyl}phenyl)-2H,3H-[1,2,4]triazolo[4,3-a]pyridin-3-one] |
